The text below walks through data of PMC6071731 (2018).

Each structure is given as a SMILES string.

Assay [1] deals with 22AG (DNA, G4) AGGGTTAGGGTTAGGGTTAGGG
As to the kind of experiment: fluorimetric titration. The settings on record: 95 mM K+; potassium phosphate buffer, 5% DMSO, pH 7.0; ligand 20 μM; DNA concentration in oligonucleotide.

For assay [2] the test system is unchanged. As to the kind of experiment: photometric titration. The settings on record: 95 mM K+; potassium phosphate buffer, 5% DMSO, pH 7.0; ligand 20 μM; DNA concentration in oligonucleotide.

In assay [1], `C(#Cc1cc2ccccc2c2ccccc12)c1ccc2c[n+]3ccccc3cc2c1` had a Kb of 30000 M⁻¹.

Turning to `C(#Cc1ccc2c[n+]3ccccc3cc2c1)c1ccccc1`, the Kb in assay [1] worked out at 220000 M⁻¹.

Regarding `CN(C)c1ccc(C#Cc2ccc3c[n+]4ccccc4cc3c2)cc1`, the Kb in assay [2] amounted to 16000 M⁻¹.

In turn, `COc1ccc(C#Cc2ccc3c[n+]4ccccc4cc3c2)cc1` displayed a Kb in assay [2] of 26000 M⁻¹.
